Test results from patent publication US9155814B2, “Nanostructured material formulated with bone cement for effective antibiotic delivery” (priority 2009, dated 2015).

Assay: In vitro drug release study in PBS buffer
Format: physicochemical
Settings: for percentage released from the bone cement: MSN-formulated bone cement loaded with gentamicin and indomethacin, FIG. 15, 80 days stated for gentamicin; for gentamicin released: FIG. 8; for amount released as a percentage to the amount loaded: after 80 days, MSN-functionalized bone cement loaded with gentamicin and vancomycin, FIG. 13; for percentage released: over 70 days, MSN functionalized bone cement loaded with gentamicin and ibuprofen, FIG. 14
Procedure: The drug release study was conducted by socking two cylinder samples of each composition in 5 ml PBS buffer (pH 7.4). The sample was put in an incubator shaker operated at 37° C. and 40 rpm. The release medium was withdrawn at predetermined time intervals, and replaced with fresh PBS buffer (5 ml) each time. The accumulative amount of gentamicin released was calculated based on the initial weight of bone cement cylinder and the drug content. The gentamicin release was followed for 80 days.
The o-phthaldialdehyde was used as a derivatizing agent to react with the amino groups of gentamicin and yield chromophoric products. The reaction was carried out making 1 ml of our problem gentamicin in solution react with 1 ml of isopropanol (to avoid the precipitation of the products formed) and 1 ml of o-phthaldialdehyde reagent. After fully mixed, the concentration of gentamicin sulfate was determined by the UV absorbance at 332 nm.
The concentration of ibuprofen, vancomycin and indomethacin was directly determined by UV-vis detection without the presence of reactive reagent.

Compound	percentage released from the bone cement	gentamicin released when loaded alone (MSN-functionalized bone cement, gentamicin alone)	gentamicin released (SmartSet HV composite bone cement with 2 wt % of MSN)	gentamicin released (SmartSet HV composite bone cement with 6.0 wt % of MSN)	amount released as a percentage to the amount loaded	percentage released
COc1ccc2c(c1)c(CC(=O)O)c(C)n2C(=O)c1ccc(Cl)cc1 [indomethacin]	15%	–	–	–	–	–
gentamicin	51%	70%	much lower	more than 55%	40.8%	90%
CC(C)Cc1ccc(C(C)C(=O)O)cc1 (stereo not drawn) [ibuprofen]	–	–	–	–	–	47%
CN[C@H](CC(C)C)C(=O)N[C@H]1C(=O)N[C@@H](CC(N)=O)C(=O)N[C@H]2C(=O)N[C@H]3C(=O)N[C@H](C(=O)N[C@H](C(=O)O)c4cc(O)cc(O)c4-c4cc3ccc4O)[C@H](O)c3ccc(c(Cl)c3)Oc3cc2cc(c3O[C@@H]2O[C@H](CO)[C@@H](O)[C@H](O)[C@H]2O[C@H]2C[C@](C)(N)[C@H](O)[C@H](C)O2)Oc2ccc(cc2Cl)[C@H]1O [vancomycin]	–	–	–	–	31%	–
